“And” between values parts separate entries of the source, which are not always exact repeats. Equal values may be shown once. Toxic doses and inconclusive results are not listed. Rule for the calls: active = survival T/C of 150% or more; inactive = T/C below 125% in these data.
Tested on: CD2F1 mice, L1210 leukemia ip, survival T/C
Assay: NCI In Vivo Anticancer Drug Screen. Data for tumor model L1210 Leukemia (intraperitoneal) in CD2F1 (CDF1) mice
Conditions: higher = longer survival
Outline: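 In this screen, transplantable tumors were grown in mice given either the compound or its vehicle. Results were expressed as the treated measurement relative to the control measurement.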

[1] = endpoint: mean survival time, dose: 12.5 mg/kg/injection, schedule: Q01DX009 (ip), vehicle: saline
[2] = endpoint: mean survival time, dose: 25.0 mg/kg/injection, schedule: Q01DX009 (ip), vehicle: saline
[3] = endpoint: mean survival time, dose: 50.0 mg/kg/injection, schedule: Q01DX009 (ip), vehicle: saline
[4] = endpoint: mean survival time, dose: 200.0 mg/kg/injection, schedule: Q04DX003 (ip), vehicle: saline
[5] = endpoint: mean survival time, dose: 400.0 mg/kg/injection, schedule: Q04DX003 (ip), vehicle: saline
[6] = endpoint: mean survival time, dose: 50.0 mg/kg/injection, schedule: Q01DX009 (ip), vehicle: saline with Tween-80
[7] = endpoint: mean survival time, dose: 100.0 mg/kg/injection, schedule: Q01DX009 (ip), vehicle: saline with Tween-80
[8] = endpoint: mean survival time, dose: 200.0 mg/kg/injection, schedule: Q01DX009 (ip), vehicle: saline with Tween-80

Measured: T/C

CN(CCOS(C)(=O)=O)CCOS(C)(=O)=O
inactive: endpoint: mean survival time, dose: 5.0 mg/kg/injection, schedule: Q01DX001 (ip), vehicle: saline 121 % of control

Cc1ncc(CO)c(C2NOCc3nscc32)c1O (stereo not drawn)
inactive: endpoint: mean survival time, dose: 18.0 mg/kg/injection, schedule: Q01DX009 (ip), vehicle: Klucel (hydroxypropylcellulose) (HPC) 90 % of control | endpoint: mean survival time, dose: 28.0 mg/kg/injection, schedule: Q01DX009 (ip), vehicle: Klucel (hydroxypropylcellulose) (HPC) 89 % of control

O=C1C=CC(=O)c2c1ccc1ccccc21
inactive: endpoint: mean survival time, dose: 12.5 mg/kg/injection, schedule: Q01DX001 (ip), vehicle: acetone 104 % of control | endpoint: mean survival time, dose: 25.0 mg/kg/injection, schedule: Q01DX001 (ip), vehicle: acetone 105 % of control | endpoint: mean survival time, dose: 50.0 mg/kg/injection, schedule: Q01DX001 (ip), vehicle: acetone 105 % of control

COC(=O)C1=CCCN(C)C1
inactive: [1] 98 % of control | [2] 104 % of control | [3] 98 % of control

CN(C)CCC(=O)c1ccc([N+](=O)[O-])cc1
inactive: endpoint: mean survival time, dose: 1.25 mg/kg/injection, schedule: Q01DX009 (ip), vehicle: saline with Tween-80 102 % of control | endpoint: mean survival time, dose: 2.5 mg/kg/injection, schedule: Q01DX009 (ip), vehicle: saline with Tween-80 96 % of control | endpoint: mean survival time, dose: 5.0 mg/kg/injection, schedule: Q01DX009 (ip), vehicle: saline with Tween-80 95 % of control | endpoint: mean survival time, dose: 5.0 mg/kg/injection, schedule: Q04DX003 (ip), vehicle: saline with Tween-80 100 % of control

Cc1ccccc1C(O)(c1ccccc1C)c1ccccc1C
inactive: endpoint: mean survival time, dose: 100.0 mg/kg/injection, schedule: Q04DX003 (ip), vehicle: acetone 96 % of control | endpoint: mean survival time, dose: 200.0 mg/kg/injection, schedule: Q04DX003 (ip), vehicle: acetone 98 % of control | endpoint: mean survival time, dose: 400.0 mg/kg/injection, schedule: Q04DX003 (ip), vehicle: acetone 98 % of control

CCOC(=O)c1ccc2c(c1)Cc1cc(N)ccc1-2
inactive: endpoint: mean survival time, dose: 100.0 mg/kg/injection, schedule: Q01DX001 (ip), vehicle: carboxymethylcellulose (CMC) 98 % of control | endpoint: mean survival time, dose: 200.0 mg/kg/injection, schedule: Q01DX001 (ip), vehicle: carboxymethylcellulose (CMC) 95 % of control

CC(=O)OCc1ccc(/C=N/Nc2ccc([N+](=O)[O-])cc2[N+](=O)[O-])cc1Br
inactive: [4] 108 % of control | [5] 100 % of control

COc1cc(/C=N/NC(=O)CNC(=O)NCc2ccco2)ccc1O
inactive: [6] 92 % of control | [7] 92 % of control | [8] 92 % of control

Nc1ccc(OCCCc2ccccc2)c([N+](=O)[O-])c1
inactive: endpoint: mean survival time, dose: 100.0 mg/kg/injection, schedule: Q01DX001 (ip), vehicle: other 92 % of control and 100 % of control | [7] 96 % of control and 102 % of control | endpoint: mean survival time, dose: 100.0 mg/kg/injection, schedule: Q04DX002 (ip), vehicle: other 98 % of control | endpoint: mean survival time, dose: 100.0 mg/kg/injection, schedule: Q04DX003 (ip), vehicle: other 98 % of control | endpoint: mean survival time, dose: 200.0 mg/kg/injection, schedule: Q01DX001 (ip), vehicle: other 93 % of control and 98 % of control | [8] 96 % of control and 106 % of control | endpoint: mean survival time, dose: 200.0 mg/kg/injection, schedule: Q04DX002 (ip), vehicle: other 100 % of control | endpoint: mean survival time, dose: 200.0 mg/kg/injection, schedule: Q04DX003 (ip), vehicle: other 100 % of control | endpoint: mean survival time, dose: 400.0 mg/kg/injection, schedule: Q01DX009 (ip), vehicle: saline with Tween-80 122 % of control and 93 % of control | endpoint: mean survival time, dose: 400.0 mg/kg/injection, schedule: Q04DX002 (ip), vehicle: other 102 % of control

BrCN(CBr)c1ccc2c(c1)Cc1cc(Br)ccc1-2
inactive: endpoint: mean survival time, dose: 100.0 mg/kg/injection, schedule: Q04DX003 (ip), vehicle: saline 100 % of control | [4] 101 % of control | [5] 103 % of control

CC(C)(C)NC(=O)Nc1ccc(Cl)c(Cl)c1
inactive: endpoint: mean survival time, dose: 100.0 mg/kg/injection, schedule: Q01DX001 (ip), vehicle: saline with Tween-80 93 % of control | endpoint: mean survival time, dose: 200.0 mg/kg/injection, schedule: Q01DX001 (ip), vehicle: saline with Tween-80 88 % of control | endpoint: mean survival time, dose: 400.0 mg/kg/injection, schedule: Q01DX001 (ip), vehicle: saline with Tween-80 93 % of control

CC1(C)OC(=O)N(CO)C1=O
inactive: [1] 100 % of control and 103 % of control | [2] 97 % of control and 102 % of control | [3] 100 % of control and 102 % of control | endpoint: mean survival time, dose: 100.0 mg/kg/injection, schedule: Q01DX009 (ip), vehicle: saline 114 % of control and 111 % of control | endpoint: mean survival time, dose: 200.0 mg/kg/injection, schedule: Q01DX009 (ip), vehicle: saline 120 % of control and 111 % of control | endpoint: mean survival time, dose: 400.0 mg/kg/injection, schedule: Q01DX009 (ip), vehicle: saline 91 % of control and 97 % of control

N#Cc1cc([N+](=O)[O-])ccc1Cl
inactive: [6] 96 % of control | [7] 91 % of control | endpoint: mean survival time, dose: 100.0 mg/kg/injection, schedule: Q04DX003 (ip), vehicle: saline with Tween-80 105 % of control | endpoint: mean survival time, dose: 200.0 mg/kg/injection, schedule: Q04DX003 (ip), vehicle: saline with Tween-80 103 % of control

O=c1oc(-c2ccc([N+](=O)[O-])cc2)nc2cc(Cl)ccc12
inactive: [6] 97 % of control | [7] 108 % of control | [8] 103 % of control

c1ccc(CNc2ncnc3[nH]ncc23)cc1
inactive: endpoint: mean survival time, dose: 1.12 mg/kg/injection, schedule: Q01DX Z (ip), vehicle: carboxymethylcellulose (CMC) 100 % of control | endpoint: mean survival time, dose: 2.25 mg/kg/injection, schedule: Q01DX Z (ip), vehicle: carboxymethylcellulose (CMC) 103 % of control | endpoint: mean survival time, dose: 4.5 mg/kg/injection, schedule: Q01DX Z (ip), vehicle: carboxymethylcellulose (CMC) 100 % of control | endpoint: mean survival time, dose: 9.0 mg/kg/injection, schedule: Q01DX Z (ip), vehicle: carboxymethylcellulose (CMC) 102 % of control

Cc1cc(O)c(C(C)C)cc1N(C)C (tested in a mixture with another compound)
inactive: endpoint: mean survival time, dose: 0.13 mg/kg/injection, schedule: Q01DX009 (ip), vehicle: saline 100 % of control | endpoint: mean survival time, dose: 0.25 mg/kg/injection, schedule: Q01DX009 (ip), vehicle: saline 106 % of control | endpoint: mean survival time, dose: 0.25 mg/kg/injection, schedule: Q04DX003 (ip), vehicle: saline 110 % of control | endpoint: mean survival time, dose: 0.5 mg/kg/injection, schedule: Q01DX001 (ip), vehicle: saline 97 % of control | endpoint: mean survival time, dose: 0.5 mg/kg/injection, schedule: Q01DX009 (ip), vehicle: saline 93 % of control | endpoint: mean survival time, dose: 0.5 mg/kg/injection, schedule: Q04DX003 (ip), vehicle: saline 87 % of control | endpoint: mean survival time, dose: 1.0 mg/kg/injection, schedule: Q01DX001 (ip), vehicle: saline 97 % of control

COC1=C(C)C(=O)C2=C(C1=O)C1C3CC4=C(C(=O)C(OC)=C(C)C4=O)C(CNC(=O)C(C)=O)N3C(C#N)C(C2)N1C (stereo not drawn)
inactive: endpoint: median survival time, dose: 0.13 mg/kg/injection, schedule: Q01DX009 (ip), vehicle: Klucel (hydroxypropylcellulose) (HPC) 118 % of control | endpoint: median survival time, dose: 0.25 mg/kg/injection, schedule: Q01DX009 (ip), vehicle: Klucel (hydroxypropylcellulose) (HPC) 110 % of control | endpoint: median survival time, dose: 0.5 mg/kg/injection, schedule: Q01DX009 (ip), vehicle: Klucel (hydroxypropylcellulose) (HPC) 113 % of control and 108 % of control | endpoint: median survival time, dose: 1.0 mg/kg/injection, schedule: Q01DX009 (ip), vehicle: Klucel (hydroxypropylcellulose) (HPC) 116 % of control and 112 % of control | endpoint: median survival time, dose: 2.0 mg/kg/injection, schedule: Q01DX009 (ip), vehicle: Klucel (hydroxypropylcellulose) (HPC) 108 % of control | endpoint: median survival time, dose: 62.5 micrograms/kg/injection, schedule: Q01DX009 (ip), vehicle: Klucel (hydroxypropylcellulose) (HPC) 100 % of control | endpoint: median survival time, dose: 125.0 micrograms/kg/injection, schedule: Q01DX009 (ip), vehicle: Klucel (hydroxypropylcellulose) (HPC) 104 % of control | endpoint: median survival time, dose: 250.0 micrograms/kg/injection, schedule: Q01DX009 (ip), vehicle: Klucel (hydroxypropylcellulose) (HPC) 108 % of control | endpoint: median survival time, dose: 500.0 micrograms/kg/injection, schedule: Q01DX009 (ip), vehicle: Klucel (hydroxypropylcellulose) (HPC) 117 % of control | endpoint: median survival time, dose: 1000.0 micrograms/kg/injection, schedule: Q01DX009 (ip), vehicle: Klucel (hydroxypropylcellulose) (HPC) 122 % of control

CCCCCCCCC(=O)N(C)OC
inactive: [6] 102 % of control | [7] 104 % of control

COc1ccccc1NC(=O)Oc1ccc(Cl)c(C)c1
inactive: endpoint: mean survival time, dose: 100.0 mg/kg/injection, schedule: Q04DX002 (ip), vehicle: saline with Tween-80 103 % of control | endpoint: mean survival time, dose: 200.0 mg/kg/injection, schedule: Q04DX002 (ip), vehicle: saline with Tween-80 103 % of control | endpoint: mean survival time, dose: 400.0 mg/kg/injection, schedule: Q04DX002 (ip), vehicle: saline with Tween-80 96 % of control

O=[N+]([O-])O.O=[N+]([O-])O.[NH-]C(c1ccccc1)C([NH-])c1ccccc1.[Pt+2] (stereo not drawn)
active: endpoint: mean survival time, dose: 6.25 mg/kg/injection, schedule: Q04DX003 (ip), vehicle: saline 168 % of control | endpoint: mean survival time, dose: 12.5 mg/kg/injection, schedule: Q04DX003 (ip), vehicle: saline with Tween-80 158 % of control | endpoint: mean survival time, dose: 12.5 mg/kg/injection, schedule: Q04DX003 (ip), vehicle: saline 189 % of control | endpoint: mean survival time, dose: 25.0 mg/kg/injection, schedule: Q04DX003 (ip), vehicle: saline with Tween-80 168 % of control | endpoint: mean survival time, dose: 25.0 mg/kg/injection, schedule: Q04DX003 (ip), vehicle: saline 195 % of control

From PubChem BioAssay AID256 (DTP/NCI, 2004)
